One experiment concerns the target BrdT (Homo sapiens, UniProt Q58F21). Kind of experiment: Protein-observed 19F NMR, 5FW-BrdT. It counts as binding. To be noted: resonance perturbation in slow exchange.
The target of the next experiment is 5FW-Brd4(1) (Homo sapiens, UniProt O60885). Kind of experiment: Protein-observed 19F NMR. It counts as binding. To be noted: W81 resonance perturbation.
For another experiment, the target named is 3FY-Brd4(1) (Homo sapiens, UniProt O60885). Kind of experiment: Protein-observed 19F NMR. It counts as binding.
For a further experiment, the target named is Brd4(1) (Homo sapiens, UniProt O60885). The conditions noted are these: fluorescence anisotropy or TR-FRET; cited from earlier work. For orientation: Fluorescence polarisation rises when a labelled molecule tumbles more slowly, as on binding a larger partner.
Another experiment concerns Brd4. The conditions noted are these: BET bromodomain inhibition; cited from earlier work.

Each structure is given as a SMILES string.

The text below walks through data of publication PMC4273984 (ACS Chemical Biology, 2014).

In the case of `CC[C@@H]1C(=O)N(C)c2cnc(Nc3ccc(C(=O)NC4CCN(C)CC4)cc3OC)nc2N1C1CCCC1` [BI2536], the “binding to BrdT by PrOF NMR” value at BrdT is recorded as “bind to BrdT”. Turning to `CC(=O)Nc1ccc(O)cc1` [acetaminophen], the Kd (commonly the free concentration of one partner at which half of the binding sites on the other are occupied at equilibrium, for simple one-to-one binding) turned out to be 230 ± 30 µM at 5FW-Brd4(1) and 290 ± 40 µM at 3FY-Brd4(1). The “affinity for Brd4(1)” value on Brd4(1) is reported as “too weak”. Consider `Cc1cnc(Nc2ccc(OCCN3CCCC3)cc2)nc1Nc1cccc(S(=O)(=O)NC(C)(C)C)c1` [TG101348], for which, in the experiment with Brd4, the IC50 (in general, the point on the concentration scale where inhibition reaches its midpoint) was […].
